From the supplement of paper PMC6045584
± gives the standard deviation of the averaged measurements.

Key:
BEZ-235 = compound: Cn1c(=O)n(-c2ccc(C(C)(C)C#N)cc2)c2c3cc(-c4cnc5ccccc5c4)ccc3ncc21 [BEZ-235]; assay: surviving fraction relative to DMSO-only wells; higher = less growth inhibition; conditions: exposure time: 5 days
In short: (§1)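 Tumour cell lines in log phase were plated in 384-well plates at 250–500 cells per well, then, after 24 hours, exposed continuously for five days to inhibitors at 0.5, 1, 5, 10, 50, 100, 500 and 1000 nM. Viability came from CellTiter-Glo luminescence, and surviving fraction is that signal normalised to the median of DMSO-only wells. Plates were read after 10 minutes at room temperature, and each line, screened three times, was kept only when replicate Pearson r was >0.7 and median Z' was >0.3.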

BLEOMYCIN = compound: Cc1c(N)nc([C@H](CC(N)=O)NC[C@H](N)C(N)=O)nc1C(=O)N[C@H](C(=O)N[C@H](C)[C@@H](O)[C@H](C)C(=O)N[C@H](C(=O)NCCc1nc(-c2nc(C(=O)NCCC[S+](C)C)cs2)cs1)[C@@H](C)O)[C@@H](OC1OC(CO)C(O)C(O)C1OC1OC(CO)C(O)C(OC(N)=O)C1O)c1cnc[nH]1 [BLEOMYCIN]; assay: as above; conditions: exposure time: 5 days
In short: as §1

Test System | surviving fraction (BEZ-235; 0.5 nM) | surviving fraction (BEZ-235; 1 nM) | surviving fraction (BEZ-235; 5 nM) | surviving fraction (BEZ-235; 10 nM) | surviving fraction (BEZ-235; 50 nM) | surviving fraction (BEZ-235; 100 nM) | surviving fraction (BEZ-235; 500 nM) | surviving fraction (BEZ-235; 1000 nM) | surviving fraction (BLEOMYCIN; 0.5 nM) | surviving fraction (BLEOMYCIN; 1 nM) | surviving fraction (BLEOMYCIN; 5 nM) | surviving fraction (BLEOMYCIN; 10 nM) | surviving fraction (BLEOMYCIN; 50 nM) | surviving fraction (BLEOMYCIN; 100 nM) | surviving fraction (BLEOMYCIN; 500 nM) | surviving fraction (BLEOMYCIN; 1000 nM)
JURKAT HAEMATOPOIETIC AND LYMPHOID TISSUE | 1.05 ± 0.03 | 1.07 ± 0.032 | 1.05 ± 0.024 | 1.05 ± 0.03 | 0.788 ± 0.021 | 0.582 ± 0.021 | 0.211 ± 0.0053 | 0.056 ± 0.001 | 1.01 ± 0.02 | 1.02 ± 0.016 | 0.986 ± 0.016 | 0.977 ± 0.012 | 0.916 ± 0.017 | 0.786 ± 0.026 | 0.232 ± 0.0061 | 0.122 ± 0.0062
KPD BONE | 0.977 ± 0.065 | 1.01 ± 0.061 | 1 ± 0.024 | 0.951 ± 0.032 | 0.525 ± 0.029 | 0.361 ± 0.0087 | 0.0903 ± 0.0011 | 0.0727 ± 0.0025 | 0.862 ± 0.01 | 0.828 ± 0.062 | 0.875 ± 0.021 | 0.891 ± 0.034 | 0.767 ± 0.018 | 0.699 ± 0.018 | 0.495 ± 0.04 | 0.407 ± 0.014
LM7 BONE | 0.941 ± 0.042 | 1 ± 0.1 | 1.02 ± 0.094 | 1.07 ± 0.062 | 0.975 ± 0.077 | 0.845 ± 0.063 | 0.366 ± 0.016 | 0.312 ± 0.024 | 0.745 ± 0.055 | 0.756 ± 0.039 | 0.834 ± 0.029 | 0.823 ± 0.091 | 0.91 ± 0.048 | 0.767 ± 0.05 | 0.402 ± 0.022 | 0.289 ± 0.044
LNCAP PROSTATE | 0.998 ± 0.11 | 0.934 ± 0.06 | 0.887 ± 0.14 | 0.9 ± 0.12 | 0.405 ± 0.016 | 0.255 ± 0.039 | 0.087 ± 0.014 | 0.0853 ± 0.011 | 1.18 ± 0.11 | 1.04 ± 0.038 | 1.14 ± 0.085 | 0.96 ± 0.15 | 1.03 ± 0.061 | 0.868 ± 0.076 | 0.847 ± 0.074 | 0.595 ± 0.072
MCF7 BREAST | 0.934 ± 0.071 | 0.961 ± 0.017 | 0.943 ± 0.064 | 0.941 ± 0.036 | 0.681 ± 0.023 | 0.5461 ± 0.0041 | 0.328 ± 0.012 | 0.2896 ± 0.0025 | 0.816 ± 0.033 | 0.821 ± 0.015 | 0.819 ± 0.007 | 0.779 ± 0.05 | 0.829 ± 0.037 | 0.847 ± 0.028 | 0.787 ± 0.0039 | 0.7254 ± 0.0065
MDAMB134 BREAST | 1.08 ± 0.058 | 1.17 ± 0.033 | 1.11 ± 0.024 | 1.09 ± 0.021 | 0.881 ± 0.025 | 0.83 ± 0.083 | 0.474 ± 0.15 | 0.476 ± 0.03 | 0.714 ± 0.15 | 0.771 ± 0.044 | 0.844 ± 0.011 | 0.724 ± 0.047 | 0.804 ± 0.04 | 0.862 ± 0.12 | 0.733 ± 0.091 | 0.753 ± 0.088
MDAMB157 BREAST | 0.983 ± 0.056 | 0.974 ± 0.1 | 0.936 ± 0.12 | 1.02 ± 0.11 | 0.825 ± 0.094 | 0.752 ± 0.081 | 0.454 ± 0.06 | 0.381 ± 0.008 | 0.89 ± 0.033 | 0.915 ± 0.045 | 0.788 ± 0.033 | 0.863 ± 0.025 | 0.815 ± 0.047 | 0.736 ± 0.07 | 0.476 ± 0.016 | 0.288 ± 0.056
MDAMB231 BREAST | 1.01 ± 0.026 | 1.02 ± 0.034 | 1.01 ± 0.032 | 0.959 ± 0.037 | 0.574 ± 0.016 | 0.437 ± 0.019 | 0.231 ± 0.0068 | 0.227 ± 0.013 | 0.961 ± 0.017 | 0.958 ± 0.018 | 0.978 ± 0.014 | 0.935 ± 0.019 | 0.887 ± 0.028 | 0.845 ± 0.021 | 0.642 ± 0.029 | 0.504 ± 0.01
MDAMB361 BREAST | 0.888 ± 0.068 | 0.854 ± 0.045 | 0.904 ± 0.03 | 0.882 ± 0.051 | 0.794 ± 0.078 | 0.636 ± 0.037 | 0.355 ± 0.015 | 0.313 ± 0.02 | 0.78 ± 0.07 | 0.761 ± 0.13 | 0.698 ± 0.03 | 0.819 ± 0.067 | 0.843 ± 0.016 | 0.882 ± 0.046 | 0.838 ± 0.047 | 0.865 ± 0.14
MDAMB436 BREAST | 0.94 ± 0.084 | 0.898 ± 0.085 | 0.876 ± 0.078 | 0.852 ± 0.088 | 0.545 ± 0.016 | 0.51 ± 0.047 | 0.392 ± 0.022 | 0.356 ± 0.013 | 0.799 ± 0.027 | 0.825 ± 0.031 | 0.834 ± 0.024 | 0.791 ± 0.033 | 0.773 ± 0.031 | 0.814 ± 0.06 | 0.598 ± 0.056 | 0.506 ± 0.073
MDAMB453 BREAST | 1.05 ± 0.066 | 1.05 ± 0.022 | 1.09 ± 0.015 | 1.05 ± 0.057 | 0.574 ± 0.046 | 0.359 ± 0.025 | 0.197 ± 0.011 | 0.169 ± 0.012 | 1.06 ± 0.051 | 1.03 ± 0.011 | 1.05 ± 0.045 | 1.09 ± 0.064 | 1.067 ± 0.009 | 1.14 ± 0.052 | 0.851 ± 0.061 | 0.711 ± 0.024
MDAMB468 BREAST | 1.08 ± 0.038 | 1.11 ± 0.015 | 1.07 ± 0.06 | 1.13 ± 0.018 | 1.06 ± 0.093 | 0.885 ± 0.05 | 0.366 ± 0.03 | 0.247 ± 0.013 | 0.804 ± 0.036 | 0.863 ± 0.058 | 0.912 ± 0.044 | 0.932 ± 0.039 | 1.09 ± 0.027 | 0.989 ± 0.049 | 0.768 ± 0.035 | 0.577 ± 0.026
MFM223 BREAST | 1.12 ± 0.069 | 1.13 ± 0.043 | 1.11 ± 0.06 | 1.15 ± 0.079 | 0.932 ± 0.071 | 0.588 ± 0.018 | 0.206 ± 0.018 | 0.179 ± 0.0092 | 0.719 ± 0.028 | 0.784 ± 0.13 | 0.702 ± 0.076 | 0.703 ± 0.032 | 0.961 ± 0.049 | 0.923 ± 0.0095 | 0.789 ± 0.047 | 0.681 ± 0.047
MG63 BONE | 1.04 ± 0.071 | 1.03 ± 0.027 | 1.06 ± 0.067 | 1.03 ± 0.052 | 0.582 ± 0.026 | 0.45 ± 0.024 | 0.17 ± 0.014 | 0.143 ± 0.011 | 0.861 ± 0.018 | 0.876 ± 0.018 | 0.864 ± 0.025 | 0.829 ± 0.018 | 0.831 ± 0.02 | 0.64 ± 0.075 | 0.22 ± 0.035 | 0.132 ± 0.0027
MHM BONE | 1.01 ± 0.021 | 0.995 ± 0.02 | 1.025 ± 0.0021 | 1.036 ± 0.0079 | 0.991 ± 0.018 | 0.885 ± 0.028 | 0.427 ± 0.011 | 0.351 ± 0.016 | 0.966 ± 0.034 | 0.975 ± 0.015 | 1.01 ± 0.03 | 0.985 ± 0.019 | 0.999 ± 0.014 | 0.921 ± 0.016 | 0.718 ± 0.013 | 0.665 ± 0.0046
NCIH441 LUNG | 1.16 ± 0.081 | 1.11 ± 0.1 | 1.1 ± 0.027 | 1.11 ± 0.11 | 1.21 ± 0.064 | 0.997 ± 0.1 | 0.527 ± 0.027 | 0.356 ± 0.061 | 0.956 ± 0.093 | 1.01 ± 0.05 | 0.919 ± 0.045 | 0.887 ± 0.063 | 0.838 ± 0.066 | 0.857 ± 0.015 | 0.762 ± 0.017 | 0.52 ± 0.028
NOS1 BONE | 1.09 ± 0.1 | 1.08 ± 0.089 | 1.08 ± 0.085 | 1.08 ± 0.046 | 0.6 ± 0.036 | 0.49 ± 0.11 | 0.206 ± 0.024 | 0.166 ± 0.032 | 0.877 ± 0.087 | 0.841 ± 0.063 | 0.795 ± 0.04 | 0.782 ± 0.14 | 1.02 ± 0.33 | 0.863 ± 0.038 | 0.557 ± 0.046 | 0.656 ± 0.25
NY BONE | 0.996 ± 0.023 | 0.987 ± 0.018 | 1.02 ± 0.048 | 1.01 ± 0.044 | 0.825 ± 0.04 | 0.769 ± 0.003 | 0.486 ± 0.022 | 0.464 ± 0.036 | 0.9287 ± 0.0064 | 0.925 ± 0.054 | 0.938 ± 0.028 | 0.911 ± 0.026 | 0.793 ± 0.035 | 0.589 ± 0.044 | 0.238 ± 0.0045 | 0.161 ± 0.012
OS25HAL BONE | 0.995 ± 0.017 | 1.01 ± 0.035 | 0.974 ± 0.031 | 0.965 ± 0.025 | 0.94 ± 0.045 | 0.788 ± 0.04 | 0.25 ± 0.0061 | 0.196 ± 0.018 | 0.885 ± 0.027 | 0.8967 ± 0.0078 | 0.924 ± 0.026 | 0.894 ± 0.027 | 0.936 ± 0.011 | 0.895 ± 0.058 | 0.511 ± 0.048 | 0.286 ± 0.004
OSHN BONE | 1.07 ± 0.033 | 1.09 ± 0.044 | 1.06 ± 0.029 | 1.08 ± 0.03 | 1.12 ± 0.013 | 1.12 ± 0.026 | 0.828 ± 0.02 | 0.623 ± 0.0072 | 0.9207 ± 0.0087 | 0.916 ± 0.012 | 0.916 ± 0.007 | 0.903 ± 0.024 | 0.925 ± 0.0044 | 0.856 ± 0.07 | 0.29 ± 0.039 | 0.132 ± 0.03
